Test results from patent US20070014692A1, “Method and apparatus for measurement of binding between a protein and a nucleotide” (priority 1998, published 2007).

Target: T1, human estrogen receptor binding to the ERE (estrogen response element from Xenopus Vitellogenen A2 Gene) (Homo sapiens, UniProt P03372)
T1 construct: ubiquitin (gene fusion); host or cells: Saccharomyces cerevisiae strain AF103, YEpE10 plasmid, CUP1 promoter
Test: Evanescent fiber optic sensor with ERE fiber: binding of Cy5-tagged hER to estrogen response element in the presence of compound (S/C)

T1 sequence (P03372 whole entry, the tested form may be a part): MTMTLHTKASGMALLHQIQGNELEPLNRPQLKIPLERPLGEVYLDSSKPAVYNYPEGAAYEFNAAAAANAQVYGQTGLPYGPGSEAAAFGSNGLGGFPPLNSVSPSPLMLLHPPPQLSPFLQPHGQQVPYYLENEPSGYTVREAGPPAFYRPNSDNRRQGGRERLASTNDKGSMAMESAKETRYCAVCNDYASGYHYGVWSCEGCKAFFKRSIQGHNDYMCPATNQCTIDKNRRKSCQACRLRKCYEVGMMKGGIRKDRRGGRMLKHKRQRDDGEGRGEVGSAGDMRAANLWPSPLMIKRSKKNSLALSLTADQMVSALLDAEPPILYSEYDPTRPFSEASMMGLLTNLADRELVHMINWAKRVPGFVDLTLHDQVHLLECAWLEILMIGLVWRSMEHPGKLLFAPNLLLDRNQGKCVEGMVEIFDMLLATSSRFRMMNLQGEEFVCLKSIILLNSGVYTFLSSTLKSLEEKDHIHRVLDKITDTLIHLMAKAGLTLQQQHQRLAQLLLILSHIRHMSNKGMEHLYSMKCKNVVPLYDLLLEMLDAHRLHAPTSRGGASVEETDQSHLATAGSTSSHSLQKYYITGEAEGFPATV

## C[C@H]1CCCC(=O)CCC/C=C/c2cc(O)cc(O)c2C(=O)O1 [zearalenone]
10^−6M compound
  effect on binding of receptor to the ERE fiber, in words: increase binding to the ERE more than do the weak biological estrogens
S/C value, control = 3.51
  Response of ERE fiber to hER and 10^−6M compound (control = 3.51): 5.01
